Measurements from patent US20130252816A1, “HERBICIDAL COMPOSITION AND USE THEREOF” (Syngenta Crop Protection LLC, priority 2010, published 2013).

Legend:
Assay type in all cases: in vivo
[1] = system: Stellaria media; assay: Example 2: alcohol ethoxylate adjuvants without glyphosate, visual % damage, tracksprayer 300 l/ha
Excerpt: (§1) The effect of different types of alcohol ethoxylate (branched—Genapol X-series, and unbranched—Genapol O-series, differing degrees of ethoxylation, see Table 3 below for more details), on unwanted vegetation (broadleaf weed and grass species), in the absence of glyphosate, was investigated and compared to untreated (water only) control weeds.
(§2) Troughs (measuring 16 cm by 13 cm by 5 cm) were filled with local field soil. Seeds of Veronica persica, Stellaria media, Trifolium repens and Poa annua were sown 24 days before application of test samples. Plants were grown in the glasshouse at 18 to 20° C. and 60% relative humidity. Application of alcohol ethoxylate test samples was carried out using a tracksprayer, spraying at a rate of 300 l/ha. Plants were kept in glasshouse and visual assessment of the estimated percentage damage to the plant was carried out 1, 7, and 14 days from application.
(§3) Damage was assessed as wilting, desiccation or any other kind of visual injury in comparison to the untreated control (water only).

[2] = system: Veronica persica; assay: as above
Excerpt: as §1, §2, §3

[3] = system: Trifolium repens; assay: as above
Excerpt: as §1, §2, §3

[4] = system: Poa annua; assay: as above
Excerpt: as §1, §2, §3

[5] = system: Stellaria media; assay: Example 1: adjuvants alone, visual % damage, pots in glasshouse
Description: (§4) The effect of different adjuvants (see Table 1 below) on the growth of broadleaf weed and grass species was investigated and compared to untreated (water only) control weeds.
(§5) Plates, each with 48 pots measuring 2.7 cm diameter and 5 cm deep, were filled with TKS1 growing media (Floragard, Germany). Seeds of Taraxacum officinale, Stellaria media or Poa annua were sown on the surface (10 to 20 per pot). Plants were grown in glasshouse at a temperature of 18 to 20° C. and at 60% relative humidity.
(§6) Plants were treated 15 (Stellaria, Poa) and 34 (Taraxacum) days after sowing with 60 μl of a 1.25, 2.5, 5 and 10% (w/v) solution of adjuvant using a hand airbrush.
(§7) Visual assessment of the percentage damage to the plant was carried out 1 day and 6 days from application.
as §3

[6] = system: Taraxacum officinale; assay: as above
Description: as §4, §5, §6, §7, §3

[7] = system: Poa annua; assay: as above
Description: as §4, §5, §6, §7, §3

“Oleyl alcohol polyglycol ether with 5 moles of ethoxylation [GenapolO050]” was tested, and the “mean % damage 1 daa Stellaria media” value ([1]; adjuvant 1% w/v) was 0%, the “mean % damage 7 daa Stellaria media” value ([1]; adjuvant 1% w/v) was 5% and the “mean % damage 14 daa Stellaria media” value ([1]; adjuvant 1% w/v) was 0%. The “mean % damage 1 daa Stellaria media” value ([1]; adjuvant 1.5% w/v) was 0%, the “mean % damage 7 daa Stellaria media” value ([1]; adjuvant 1.5% w/v) was 5% and the “mean % damage 14 daa Stellaria media” value ([1]; adjuvant 1.5% w/v) was 5%. The “mean % damage 1 daa Stellaria media” value ([1]; adjuvant 2% w/v) was 0%, the “mean % damage 7 daa Stellaria media” value ([1]; adjuvant 2% w/v) was 10% and the “mean % damage 14 daa Stellaria media” value ([1]; adjuvant 2% w/v) was 5%. For the same substance, the “mean % damage 1 daa Stellaria media” value ([1]; adjuvant 2.5% w/v) was 0%, the “mean % damage 7 daa Stellaria media” value ([1]; adjuvant 2.5% w/v) was 10% and the “mean % damage 14 daa Stellaria media” value ([1]; adjuvant 2.5% w/v) was 10%. For the same substance, the “mean % damage 1 daa Veronica persica” value ([2]; adjuvant 1% w/v) was 0%, the “mean % damage 7 daa Veronica persica” value ([2]; adjuvant 1% w/v) was 5% and the “mean % damage 14 daa Veronica persica” value ([2]; adjuvant 1% w/v) was 5%. For the same substance, the “mean % damage 1 daa Veronica persica” value ([2]; adjuvant 1.5% w/v) was 0%, the “mean % damage 7 daa Veronica persica” value ([2]; adjuvant 1.5% w/v) was 10% and the “mean % damage 14 daa Veronica persica” value ([2]; adjuvant 1.5% w/v) was 20%. For the same substance, the “mean % damage 1 daa Veronica persica” value ([2]; adjuvant 2% w/v) was 0%, the “mean % damage 7 daa Veronica persica” value ([2]; adjuvant 2% w/v) was 10% and the “mean % damage 14 daa Veronica persica” value ([2]; adjuvant 2% w/v) was 20%. The “mean % damage 1 daa Veronica persica” value ([2]; adjuvant 2.5% w/v) was 0%, the “mean % damage 7 daa Veronica persica” value ([2]; adjuvant 2.5% w/v) was 20% and the “mean % damage 14 daa Veronica persica” value ([2]; adjuvant 2.5% w/v) was 20%. For the same substance, the “mean % damage 1 daa Trifolium repens” value ([3]; adjuvant 1% w/v) was 0%, the “mean % damage 7 daa Trifolium repens” value ([3]; adjuvant 1% w/v) was 5% and the “mean % damage 14 daa Trifolium repens” value ([3]; adjuvant 1% w/v) was 0%. For the same substance, the “mean % damage 1 daa Trifolium repens” value ([3]; adjuvant 1.5% w/v) was 0%, the “mean % damage 7 daa Trifolium repens” value ([3]; adjuvant 1.5% w/v) was 5% and the “mean % damage 14 daa Trifolium repens” value ([3]; adjuvant 1.5% w/v) was 0%. The “mean % damage 1 daa Trifolium repens” value ([3]; adjuvant 2% w/v) was 0%, the “mean % damage 7 daa Trifolium repens” value ([3]; adjuvant 2% w/v) was 5% and the “mean % damage 14 daa Trifolium repens” value ([3]; adjuvant 2% w/v) was 0%. The “mean % damage 1 daa Trifolium repens” value ([3]; adjuvant 2.5% w/v) was 0%, the “mean % damage 7 daa Trifolium repens” value ([3]; adjuvant 2.5% w/v) was 5% and the “mean % damage 14 daa Trifolium repens” value ([3]; adjuvant 2.5% w/v) was 0%. The “mean % damage 1 daa Poa annua” value ([4]; adjuvant 1% w/v) was 0%, the “mean % damage 7 daa Poa annua” value ([4]; adjuvant 1% w/v) was 10% and the “mean % damage 14 daa Poa annua” value ([4]; adjuvant 1% w/v) was 0%. The “mean % damage 1 daa Poa annua” value ([4]; adjuvant 1.5% w/v) was 0%, the “mean % damage 7 daa Poa annua” value ([4]; adjuvant 1.5% w/v) was 5% and the “mean % damage 14 daa Poa annua” value ([4]; adjuvant 1.5% w/v) was 0%. For the same substance, the “mean % damage 1 daa Poa annua” value ([4]; adjuvant 2% w/v) was 0%, the “mean % damage 7 daa Poa annua” value ([4]; adjuvant 2% w/v) was 5% and the “mean % damage 14 daa Poa annua” value ([4]; adjuvant 2% w/v) was 5%. For the same substance, the “mean % damage 1 daa Poa annua” value ([4]; adjuvant 2.5% w/v) was 0%, the “mean % damage 7 daa Poa annua” value ([4]; adjuvant 2.5% w/v) was 5% and the “mean % damage 14 daa Poa annua” value ([4]; adjuvant 2.5% w/v) was 5%. The “avg % damage 1 DAA Stellaria media” value ([5]; adjuvant 1.25% w/v) was 0%, the “avg % damage 6 DAA Stellaria media” value ([5]; adjuvant 1.25% w/v) was 0% and the “avg % damage 1 DAA Stellaria media” value ([5]; adjuvant 2.5% w/v) was 10%. For the same substance, the “avg % damage 6 DAA Stellaria media” value ([5]; adjuvant 2.5% w/v) was 15%, the “avg % damage 1 DAA Stellaria media” value ([5]; adjuvant 5% w/v) was 15% and the “avg % damage 6 DAA Stellaria media” value ([5]; adjuvant 5% w/v) was 25%. For the same substance, the “avg % damage 1 DAA Stellaria media” value ([5]; adjuvant 10% w/v) was 30%, the “avg % damage 6 DAA Stellaria media” value ([5]; adjuvant 10% w/v) was 25% and the “avg % damage 1 DAA Taraxacum officinale” value ([6]; adjuvant 1.25% w/v) was 10%. The “avg % damage 6 DAA Taraxacum officinale” value ([6]; adjuvant 1.25% w/v) was 0%, the “avg % damage 1 DAA Taraxacum officinale” value ([6]; adjuvant 2.5% w/v) was 10% and the “avg % damage 6 DAA Taraxacum officinale” value ([6]; adjuvant 2.5% w/v) was 3%. For the same substance, the “avg % damage 1 DAA Taraxacum officinale” value ([6]; adjuvant 5% w/v) was 10%, the “avg % damage 6 DAA Taraxacum officinale” value ([6]; adjuvant 5% w/v) was 20% and the “avg % damage 1 DAA Taraxacum officinale” value ([6]; adjuvant 10% w/v) was 10%. For the same substance, the “avg % damage 6 DAA Taraxacum officinale” value ([6]; adjuvant 10% w/v) was 0%, the “avg % damage 1 DAA Poa annua” value ([7]; adjuvant 1.25% w/v) was 0% and the “avg % damage 6 DAA Poa annua” value ([7]; adjuvant 1.25% w/v) was 5%. For the same substance, the “avg % damage 1 DAA Poa annua” value ([7]; adjuvant 2.5% w/v) was 0%, the “avg % damage 6 DAA Poa annua” value ([7]; adjuvant 2.5% w/v) was 5% and the “avg % damage 1 DAA Poa annua” value ([7]; adjuvant 5% w/v) was 0%. The “avg % damage 6 DAA Poa annua” value ([7]; adjuvant 5% w/v) was 10%, the “avg % damage 1 DAA Poa annua” value ([7]; adjuvant 10% w/v) was 0% and the “avg % damage 6 DAA Poa annua” value ([7]; adjuvant 10% w/v) was 10%.

With “Oleyl alcohol polyglycol ether with 20 moles of ethoxylation [GenapolO200]” the “avg % damage 1 DAA Stellaria media” value ([5]; adjuvant 1.25% w/v) was 0%, the “avg % damage 6 DAA Stellaria media” value ([5]; adjuvant 1.25% w/v) was 0% and the “avg % damage 1 DAA Stellaria media” value ([5]; adjuvant 2.5% w/v) was 0%. The “avg % damage 6 DAA Stellaria media” value ([5]; adjuvant 2.5% w/v) was 5%, the “avg % damage 1 DAA Stellaria media” value ([5]; adjuvant 5% w/v) was 0% and the “avg % damage 6 DAA Stellaria media” value ([5]; adjuvant 5% w/v) was 5%. The “avg % damage 1 DAA Stellaria media” value ([5]; adjuvant 10% w/v) was 15%, the “avg % damage 6 DAA Stellaria media” value ([5]; adjuvant 10% w/v) was 30% and the “avg % damage 1 DAA Taraxacum officinale” value ([6]; adjuvant 1.25% w/v) was 0%. The “avg % damage 6 DAA Taraxacum officinale” value ([6]; adjuvant 1.25% w/v) was 3%, the “avg % damage 1 DAA Taraxacum officinale” value ([6]; adjuvant 2.5% w/v) was 0% and the “avg % damage 6 DAA Taraxacum officinale” value ([6]; adjuvant 2.5% w/v) was 0%. The “avg % damage 1 DAA Taraxacum officinale” value ([6]; adjuvant 5% w/v) was 0%, the “avg % damage 6 DAA Taraxacum officinale” value ([6]; adjuvant 5% w/v) was 5% and the “avg % damage 1 DAA Taraxacum officinale” value ([6]; adjuvant 10% w/v) was 10%. The “avg % damage 6 DAA Taraxacum officinale” value ([6]; adjuvant 10% w/v) was 0%, the “avg % damage 1 DAA Poa annua” value ([7]; adjuvant 1.25% w/v) was 0% and the “avg % damage 6 DAA Poa annua” value ([7]; adjuvant 1.25% w/v) was 0%. For the same substance, the “avg % damage 1 DAA Poa annua” value ([7]; adjuvant 2.5% w/v) was 0%, the “avg % damage 6 DAA Poa annua” value ([7]; adjuvant 2.5% w/v) was 0% and the “avg % damage 1 DAA Poa annua” value ([7]; adjuvant 5% w/v) was 0%. For the same substance, the “avg % damage 6 DAA Poa annua” value ([7]; adjuvant 5% w/v) was 0%, the “avg % damage 1 DAA Poa annua” value ([7]; adjuvant 10% w/v) was 0% and the “avg % damage 6 DAA Poa annua” value ([7]; adjuvant 10% w/v) was 0%.

For “Tri-sec-butylphenol polyglycol ether with 6 Moles of ethoxylation [SAPOGENAT T 060]”, the “avg % damage 1 DAA Stellaria media” value ([5]; adjuvant 1.25% w/v) was 0%, the “avg % damage 6 DAA Stellaria media” value ([5]; adjuvant 1.25% w/v) was 0% and the “avg % damage 1 DAA Stellaria media” value ([5]; adjuvant 2.5% w/v) was 0%. For the same substance, the “avg % damage 6 DAA Stellaria media” value ([5]; adjuvant 2.5% w/v) was 0%, the “avg % damage 1 DAA Stellaria media” value ([5]; adjuvant 5% w/v) was 0% and the “avg % damage 6 DAA Stellaria media” value ([5]; adjuvant 5% w/v) was 20%. For the same substance, the “avg % damage 1 DAA Stellaria media” value ([5]; adjuvant 10% w/v) was 0%, the “avg % damage 6 DAA Stellaria media” value ([5]; adjuvant 10% w/v) was 20% and the “avg % damage 1 DAA Taraxacum officinale” value ([6]; adjuvant 1.25% w/v) was 0%. The “avg % damage 6 DAA Taraxacum officinale” value ([6]; adjuvant 1.25% w/v) was 0%, the “avg % damage 1 DAA Taraxacum officinale” value ([6]; adjuvant 2.5% w/v) was 0% and the “avg % damage 6 DAA Taraxacum officinale” value ([6]; adjuvant 2.5% w/v) was 0%. For the same substance, the “avg % damage 1 DAA Taraxacum officinale” value ([6]; adjuvant 5% w/v) was 0%, the “avg % damage 6 DAA Taraxacum officinale” value ([6]; adjuvant 5% w/v) was 0% and the “avg % damage 1 DAA Taraxacum officinale” value ([6]; adjuvant 10% w/v) was 0%. The “avg % damage 6 DAA Taraxacum officinale” value ([6]; adjuvant 10% w/v) was 0%, the “avg % damage 1 DAA Poa annua” value ([7]; adjuvant 1.25% w/v) was 0% and the “avg % damage 6 DAA Poa annua” value ([7]; adjuvant 1.25% w/v) was 5%. The “avg % damage 1 DAA Poa annua” value ([7]; adjuvant 2.5% w/v) was 0%, the “avg % damage 6 DAA Poa annua” value ([7]; adjuvant 2.5% w/v) was 5% and the “avg % damage 1 DAA Poa annua” value ([7]; adjuvant 5% w/v) was 0%. For the same substance, the “avg % damage 6 DAA Poa annua” value ([7]; adjuvant 5% w/v) was 25%, the “avg % damage 1 DAA Poa annua” value ([7]; adjuvant 10% w/v) was 0% and the “avg % damage 6 DAA Poa annua” value ([7]; adjuvant 10% w/v) was 35%.
